Test results as given in the Bradley open melting point set (2014).

Structure (SMILES) | melting point [°C]
C[N+](C)(C)C[C@H](O)CC(=O)[O-] [L-Carnitine] | 196
NC(=O)NCCC[C@H](N)C(=O)O [L-Citrulline] | 214
O=C[C@@H](O)[C@H](O)[C@@H](O)[C@@H](O)CO [L-Glucose] | 150
N[C@@H](CCC(=O)O)C(=O)O [L-Glutamic Acid] | 224
O=C(O)[C@@H]1CCCN1 [L-Proline] | 228
N[C@@H](CO)C(=O)O [L-Serine] | 222
C[C@@H](O)[C@H](N)C(=O)O [L-Threonine] | 256
C(O)[C@H](O)[C@@H](O)[C@@H](O)CO [L-arabitol] | 101
CC(C)[C@@H]1CC[C@@H](C)C[C@H]1O [L-menthol] | 44
CSCC[C@H](N)CO [L-methioninol] | 32
CC(=O)CCC(=O)O [Laevulinic Acid] | 33
CCCCCCCCCCCC(N)=O [Lauramide] | 99
CCCCCCCCCCCC(=O)O [Lauric acid] | 45
N#Cc1ccc(C(c2ccc(C#N)cc2)n2cncn2)cc1 [Letrozole] | 184
C=CCN1CC[C@]23CCCC[C@H]2[C@H]1Cc1ccc(O)cc13 [Levallorphan] | 181
ClC1C(Cl)C(Cl)C(Cl)C(Cl)C1Cl (stereo unspecified) [Lindane] | 114
CC(Oc1c(Cl)cccc1Cl)C1=NCCN1 (stereo unspecified) [Lofexidine] | 127
O=C1Nc2ccc(Cl)cc2C(c2ccccc2Cl)=NC1O (stereo unspecified) [Lorazepam] | 166
CC[C@H](C)C(=O)O[C@H]1C[C@@H](C)C=C2C=C[C@H](C)[C@H](CC[C@@H]3C[C@@H](O)CC(=O)O3)[C@H]21 [Lovastatin] | 175
Cc1cccc(O)c1 [M-Cresol] | 11.8
CCc1c(C)[nH]c2ccc(N(C)C)cc12 [Medmain] | 100
CC1=CC(=O)c2ccccc2C1=O [Menadione] | 102
CCOC(=O)C1(c2ccccc2)CCN(C)CC1 [Meperidine] | 188
CCC1(c2ccccc2)NC(=O)N(C)C1=O (stereo unspecified) [Mephenytoin] | 135
CN(C)C(=N)NC(=N)N [Metformin] | 224
CO [Methanol] | -98

Structure (SMILES) | melting point [°C]
Cc1ccccc1-n1c(C)nc2ccccc2c1=O [Methaqualone] | 113
CCC1(CC)C(=O)NC(=O)N(C)C1=O [Metharbital] | 150
COC(F)(F)C(Cl)Cl [Methoxyflurane] | -35
COC(=O)c1ccccc1N [Methyl 2-aminobenzoate] | 24
COC(=O)c1ccc(O)cc1 [Methyl 4-hydroxybenzoate] | 127
COC(=O)[C@H](Cc1ccccc1)NC(=O)[C@@H](N)CC(=O)O [Methyl L-alpha-aspartyl-L-phenylalaninate] | 249
COC(=O)[C@@H](N)Cc1ccc(O)cc1 [Methyl L-tyrosinate] | 134
C=CC(=O)OC [Methyl acrylate] | -75
COC(=O)c1ccccc1 [Methyl benzoate] | -12
CCC1(c2ccccc2)C(=O)NC(=O)N(C)C1=O (stereo unspecified) [Methylphenobarbital] | 176
COc1ccc(NC(=O)N(C)C)cc1Cl [Metoxuron] | 127
NC(=O)CS(=O)C(c1ccccc1)c1ccccc1 (stereo unspecified) [Modafinil] | 165
CCOC(=O)Nc1ccc2c(c1)N(C(=O)CCN1CCOCC1)c1ccccc1S2 [Moricizine] | 156
CCCCCCCCCCCCCC(=O)O [Myristic acid] | 55.1
O=C(NNc1ccccc1)NNc1ccccc1 [N'',N'''-Diphenylcarbonohydrazide] | 173
NCCNCCNCCN [N,N'-Bis(2-aminoethyl)ethane-1,2-diamine] | 12
CC(=O)Nc1ccc(/C=C/c2ccc(NC(C)=O)cc2)cc1 [N,N'-[(E)-ethene-1,2-diyldibenzene-4,1-diyl]diacetamide] | 219
CCCCNC(=S)NCCCC [N,N'-di-n-butylthiourea] | 66
C(=NC1CCCCC1)=NC1CCCCC1 [N,N'-dicyclohexylcarbodiimide] | 35
CCNC(=O)C(=O)NCC [N,N'-diethyloxamide] | 180
CNC(=O)NC [N,N'-dimethylurea] | 102
CCCCN(CCCC)CCCC [N,N-Dibutylbutan-1-amine] | -70
CN(C)c1ccc(N=O)cc1 [N,N-Dimethyl-4-nitrosoaniline] | 86
CCCN(CCC)CCC [N,N-Dipropylpropan-1-amine] | -93.5
CCCCN(CCCC)CCCN [N,N-di-n-butyl-1,3-propylenediamine] | -70
